Reference: patent US11053204B2, “Pyrimidinyloxy benzene derivatives as herbicides” (FMC Corporation, priority 2015, dated 2021)

Experiments:
Type in all cases: in vivo
[1] = test system: giant foxtail (Setaria faberii); assay: Test A postemergence, visual injury rating; settings: 0 to 100 scale, 0 is no effect, 100 is complete control, approximately 10 days
Summary of the method: (§1)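 Injury scores run from 0, no effect, to 100, complete control, judged by eye against untreated plants roughly 10 days after treatment. Chemicals carried a surfactant in a non-phytotoxic solvent and went onto loam–sand soil preemergence or onto one- to two-leaf seedlings postemergence.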

kochia (Kochia scoparia) [2] = assay: Test A postemergence, visual injury rating; settings: 0 to 100 scale, 0 is no effect, 100 is complete control, approximately 10 days
Summary of the method: as §1

[3] = test system: Italian ryegrass (Lolium multiflorum); assay: Test A postemergence, visual injury rating; settings: 0 to 100 scale, 0 is no effect, 100 is complete control, approximately 10 days
Summary of the method: as §1

corn (Zea mays) = assay: Test A postemergence, visual injury rating; settings: 0 to 100 scale, 0 is no effect, 100 is complete control, approximately 10 days
Summary of the method: as §1

[4] = test system: pigweed (Amaranthus retroflexus); assay: Test A postemergence, visual injury rating; settings: 0 to 100 scale, 0 is no effect, 100 is complete control, approximately 10 days
Summary of the method: as §1

[5] = test system: wheat (Triticum aestivum); assay: Test A postemergence, visual injury rating; settings: 0 to 100 scale, 0 is no effect, 100 is complete control, approximately 10 days
Summary of the method: as §1

[6] = test system: ragweed (common ragweed, Ambrosia elatior); assay: Test A postemergence, visual injury rating; settings: 0 to 100 scale, 0 is no effect, 100 is complete control, approximately 10 days
Summary of the method: as §1

[7] = test system: ducksalad (Heteranthera limosa); assay: Test B flooded paddy test, plant response rating; settings: 250 g ai/ha; Flood; scale of 0 to 100 where 0 is no effect and 100 is complete control; 13 to 15 days
Summary of the method: (§2)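 Ratings were visual and made relative to untreated controls after 13 to 15 greenhouse days.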

rice (Oryza sativa) = assay: Test B flooded paddy test, plant response rating; settings: 250 g ai/ha; Flood; scale of 0 to 100 where 0 is no effect and 100 is complete control; 13 to 15 days
Summary of the method: as §2

[8] = test system: barnyardgrass (Echinochloa crus-galli); assay: Test B flooded paddy test, plant response rating; settings: 250 g ai/ha; Flood; scale of 0 to 100 where 0 is no effect and 100 is complete control; 13 to 15 days
Summary of the method: as §2

[9] = test system: sedge, umbrella (small-flower umbrella sedge, Cyperus difformis); assay: Test B flooded paddy test, plant response rating; settings: 250 g ai/ha; Flood; scale of 0 to 100 where 0 is no effect and 100 is complete control; 13 to 15 days
Summary of the method: as §2

[10] = test system: waterhemp (common waterhemp, Amaranthus rudis); assay: Test C postemergence, plant response rating
Summary of the method: (§3)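 Visual injury score, 0 = no effect, 100 = complete control, assigned against untreated controls after 13 to 15 d in the greenhouse. Compounds were applied in a surfactant-containing non-phytotoxic solvent mix, preemergence to seeded loam/sand or silt loam soil, or postemergence to 1- to 4-leaf plants (2 to 18 cm).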

[11] = test system: velvetleaf (Abutilon theophrasti); assay: Test C postemergence, plant response rating
Summary of the method: as §3

[12] = test system: oilseed rape (Brassica napus); assay: Test C postemergence, plant response rating; settings: for Oilseed Rape plant response rating: scale 0 to 100 (0 no effect, 100 complete control)
Summary of the method: as §3

kochia (Kochia scoparia) [13] = assay: Test C postemergence, plant response rating; settings: for Kochia plant response rating: scale 0 to 100 (0 no effect, 100 complete control)
Summary of the method: as §3

[14] = test system: ragweed (common ragweed, Ambrosia elatior); assay: Test C postemergence, plant response rating; settings: for Ragweed plant response rating: scale 0 to 100 (0 no effect, 100 complete control)
Summary of the method: as §3

[15] = test system: morningglory (Ipomoea coccinea); assay: Test C postemergence, plant response rating; settings: for Morningglory plant response rating: scale 0 to 100 (0 no effect, 100 complete control)
Summary of the method: as §3

[16] = 125 g ai/ha, scale 0 to 100 (0 no effect, 100 complete control)

FC(F)(F)CCCc1c(Br)cccc1Oc1ncc(Cl)cn1 [Compound 89]
Foxtail, Giant plant response rating ([1]; 31 g ai/ha): 20
Foxtail, Giant plant response rating ([1]; 125 g ai/ha): 50
Kochia plant response rating (kochia (Kochia scoparia) [2]; 31 g ai/ha): 80
Kochia plant response rating (kochia (Kochia scoparia) [2]; 125 g ai/ha): 90
Ryegrass, Italian plant response rating ([3]; 31 g ai/ha): 10
Ryegrass, Italian plant response rating ([3]; 125 g ai/ha): 30
Corn plant response rating (corn (Zea mays); 31 g ai/ha): 10
Corn plant response rating (corn (Zea mays); 125 g ai/ha): 20
Pigweed plant response rating ([4]; 31 g ai/ha): 90
Pigweed plant response rating ([4]; 125 g ai/ha): 90
Wheat plant response rating ([5]; 31 g ai/ha): 0
Wheat plant response rating ([5]; 125 g ai/ha): 20
Ragweed plant response rating ([6]; 31 g ai/ha): 10
Ragweed plant response rating ([6]; 125 g ai/ha): 10
Plant response rating, Ducksalad [7]: 95
Plant response rating, Rice (rice (Oryza sativa)): 40
Plant response rating, Barnyardgrass [8]: 40
Plant response rating, Sedge, Umbrella [9]: 95
Plant response rating, Waterhemp ([10]; 16 g ai/ha, scale of 0 to 100): 70
Plant response rating, Waterhemp ([10]; 31 g ai/ha, scale 0 to 100): 70
Waterhemp plant response rating [10, 16]: 95
Plant response rating, Velvetleaf ([11]; 16 g ai/ha, scale of 0 to 100): 20
Plant response rating, Velvetleaf ([11]; 31 g ai/ha, scale 0 to 100): 35
Velvetleaf plant response rating [11, 16]: 70
Plant response rating, Oilseed Rape ([12]; 16 g ai/ha, scale of 0 to 100): 60
Plant response rating, Oilseed Rape ([12]; 31 g ai/ha, scale 0 to 100): 95
Oilseed Rape plant response rating ([12]; 62 g ai/ha): 90
Oilseed Rape plant response rating ([12]; 125 g ai/ha): 100
Plant response rating, Kochia (kochia (Kochia scoparia) [13]; 16 g ai/ha, scale of 0 to 100): 70
Plant response rating, Kochia (kochia (Kochia scoparia) [13]; 31 g ai/ha, scale 0 to 100): 75
Kochia plant response rating (kochia (Kochia scoparia) [13]; 62 g ai/ha): 80
Kochia plant response rating (kochia (Kochia scoparia) [13]; 125 g ai/ha): 95
Plant response rating, Ragweed ([14]; 16 g ai/ha, scale of 0 to 100): 0
Plant response rating, Ragweed ([14]; 31 g ai/ha, scale 0 to 100): 5
Ragweed plant response rating ([14]; 62 g ai/ha): 10
Ragweed plant response rating ([14]; 125 g ai/ha): 25
Plant response rating, Morningglory ([15]; 16 g ai/ha, scale of 0 to 100): 5
Plant response rating, Morningglory ([15]; 31 g ai/ha, scale 0 to 100): 15
Morningglory plant response rating ([15]; 62 g ai/ha): 25
Morningglory plant response rating ([15]; 125 g ai/ha): 55
